Data taken from patent US10220029B2, “Pharmaceutical composition comprising glutarimide derivatives and use thereof in the treatment of eosinophilic diseases” (OBSCHESTVO S ORGANICHENNOI OTVETSTVENNOSTIYU …, priority 2013, dated 2019).

Columns and labels:
[1] = test system: model of allergic rhinitis in guinea pigs; test: Clinical manifestations of allergic rhinitis in guinea pigs (sneezes, nose scratchings); format: in vivo, guinea pig; conditions: 5 mg/kg intragastric, one time (reference preparation); 2 hours after last ovalbumin; n = 8
Description: (§1) The model of allergic rhinitis in guinea pigs was realized by a standard method [Vishnu N. Thakare, M. M. Osama, Suresh R. Naik. […] 2013 September; 17(1):18-25].
(§2) Guinea pigs (250-300 g) were immunized with 4-time (on days 0, 7, 14, and 21) intragastric administration of ovalbumin (100 μg/pig) and aluminium hydroxide (5 mg/pig), both of which were diluted and suspended in a physiological saline solution. […], a solution of ovalbumin (60 mg/mL) was administered intranasally to each nostril of the animals at a dose 20 μL. On day 35, the animals received subcutaneously an ovalbumin solution (200 μg/mL, 25 μL); the animal back was previously shaved in the site of administration. Swelling and redness at the injection site served as a support of sensibilisation. On day 42 of the study, an ovalbumin solution (60 mg/mL, 20 μL/nostril) was administered intranasally. A group of pseudoimmunized animals was formed to control the formation of exactly allergic inflammation: on days 0, 7, 14, and 21, the pigs received a solution of aluminium hydroxide (5 mg/pig), and on days 28 and 35, they received a physiological saline solution, and on day 42, a solution of ovalbumin (60 mg/mL, 20 μL/nostril).
(§3) The studied compounds (14 mg/kg) were administered 3 times by the intragastric route: 48, 24, and 1 hour before the last administration of ovalbumin. The reference preparation, dexamethasone, was administered one time by the intragastric route, 3 hours before the last intranasal administration of ovalbumin.
(§4) Clinical manifestations, such as the number of sneezes and nose scratchings, were registered for 2 hours after the last administration of ovalbumin. Nasal lavage was taken 24 hours after the last administration of ovalbumin, and in this lavage, the total lymphocyte count and leukocyte formula were determined. The number of guinea pigs in a group was 8.

[2] = test system: model of allergic rhinitis in guinea pigs; test: Content of cell elements in the nasal lavage in the model of allergic rhinitis in guinea pigs; format: in vivo, guinea pig; conditions: 5 mg/kg intragastric, one time 3 hours before last ovalbumin (reference preparation); n = 8
Description: as §1, §2, §3, §4

[3] = test system: model of atopic dermatitis in mice; test: Response index in DNCB-induced atopic (allopathic) dermatitis in mice; format: in vivo, male Balb/c mice; conditions: 10 mg/kg intragastric once daily on days 8-17 (reference preparation); n = 12
Description: The model of allopathic dermatitis was realized by a standard method [Mechanism of dinitrochlorobenzene-induced dermatitis in mice: role of specific antibodies in pathogenesis//PLoS One. 2009; 4(11)].
On days 0 and 12 of the study, 100 μL of a 2% solution of 1-chloro-2,4-dinitrobenzene (DNCB, Sigma-Aldrich, US) in 95% ethanol was applied to shaved sites in the backs of male Balb/c mice. On day 17 of the study, to the right “studied” ear of the animals, 20 μL of the alcohol solution of 2% DNCB was applied two times with a one-hour interval. The studied compound and the reference preparation, dexamethasone, were administered by the intragastric route once daily on days 8-17 of the study.
On day 18 of the study, the animals were euthanized in a CO2 camera. The weights of the “studied” and “control” ears were measured. A response index (RI) expressed in percentage of a difference in the weights of the “studied” and “control” ears was calculated.

Question: Which “Number of nose scratchings/2 hours” value [1] does the source give for `C[C@@H]1C[C@H]2[C@@H]3CCC4=CC(=O)C=C[C@]4(C)[C@@]3(F)[C@@H](O)C[C@]2(C)[C@@]1(O)C(=O)CO` [Dexamethasone, dexamethasone, reference compound] here?
Answer: 16.7 ± 1.8*&

Question: What about the “Number of sneezes/2 hours” value [1] of the same molecule?
Answer: 7.9 ± 0.8 &

Question: What about the “Eosinophils, content of cell elements in 1 μL of nasal lavage” value [2] of the same molecule?
Answer: 365 ± 90& in 1 μL of nasal lavage

Question: And the “Leukocytes, content of cell elements in 1 μL of nasal lavage” value [2]?
Answer: 1186 ± 142& in 1 μL of nasal lavage

Question: And the “Lymphocytes, content of cell elements in 1 μL of nasal lavage” value [2]?
Answer: 5 ± 3 in 1 μL of nasal lavage

Question: What about the “Macrophages, content of cell elements in 1 μL of nasal lavage” value [2] of the same molecule?
Answer: 296 ± 71 in 1 μL of nasal lavage

Question: What about the “Neutrophils, content of cell elements in 1 μL of nasal lavage” value [2] of the same molecule?
Answer: 328 ± 47& in 1 μL of nasal lavage

Question: And the “Response index (%)” value [3]?
Answer: 65.6 ± 8*& %
